Laboratory results taken from the supplement of paper PMC8837787.
Counter-ions that a name gives are not always drawn.

Tested on: Saccharomyces cerevisiae ABC16-Green Monster
Settings: 18 h; 30 °C; YPD
Procedure, shortened: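 In 96-well plates, 200 µl per well of log-phase drug-sensitive S. cerevisiae ABC16-Green Monster in YPD received eight 1:2 compound dilutions (final 0.1–150 μM) in biological duplicate and was incubated for 18 h at 30 °C. OD600 was read at the start and at 18 h. IC50 was fitted to the background-subtracted readings by variable-slope nonlinear regression in GraphPad Prism.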

SMILES: CCC(C)n1ncn(-c2ccc(N3CCN(c4ccc(OCC5COC(Cn6cncn6)(c6ccc(Cl)cc6Cl)O5)cc4)CC3)cc2)c1=O (configuration not stated) [Itraconazole]
- IC50 growth inhibition: 7.53 µM

SMILES: N#Cc1c(N2CCCC2)nn(C(=O)Nc2ccc(Cl)c(Cl)c2)c1N
- IC50 growth inhibition: 4.53 µM

SMILES: CN1CCCN=C1C=Cc1cccs1.O=C(O)c1cc2ccccc2c(Cc2c(O)c(C(=O)O)cc3ccccc23)c1O [Pyrantal Pamoate]
- IC50 growth inhibition: > 75 µM

SMILES: COc1ccc(C2Sc3ccccc3N=C3C2=C(O)c2ccccc23)cc1 (configuration not stated) [GNF-Pf-5129]
- IC50 growth inhibition: 3.97 µM

SMILES: N#C/C(=C\c1cn(Cc2ccccc2)nc1-c1cccnc1)c1nc2ccccc2[nH]1
- IC50 growth inhibition: 138 µM

SMILES: Cc1cc(N(C)Cc2ccccc2Br)nc(N)n1
- IC50 growth inhibition: 52.6 µM

SMILES: C(#Cc1ccc(-c2cc[nH]n2)s1)c1ccccc1
- IC50 growth inhibition: 18.9 µM

SMILES: CC(C)Oc1cc(Nc2nc(N[C@@H](C)c3ccc(F)cc3)c(C#N)cc2F)[nH]n1 [AZD-6918]
- IC50 growth inhibition: > 75 µM

SMILES: Cc1ccc(S(=O)(=O)n2cc(-c3ccnc(N)c3)c3cc(Br)cnc32)cc1
- IC50 growth inhibition: 6.17 µM

SMILES: Cc1c(C)n(CCCN(C)C)c2ncn3nc(-c4ccc(N(C)C)cc4)nc3c12
- IC50 growth inhibition: 42.3 µM

SMILES: CNC(=O)c1nn(C)c2c1C(C)(C)Cc1cnc(Nc3ccc(N4CCN(C)CC4)cc3)nc1-2 [milciclib maleate]
- IC50 growth inhibition: 84.1 µM

SMILES: Cn1ccnc1CNCCS(=O)(=O)c1cccc(Nc2ccc(-c3cccc(F)c3)cn2)c1
- IC50 growth inhibition: 50.5 µM

SMILES: FC(F)(F)c1cccc(Nc2nc3ccccc3nc2Nc2cccc(C(F)(F)F)c2)c1
- IC50 growth inhibition: 1.6 µM

SMILES: NCCN(C(=O)c1ccc(Cl)cc1Cl)c1ccc(OCc2ccc(Cl)cc2)cc1
- IC50 growth inhibition: 10.5 µM

SMILES: O=c1c2ccccc2[nH]c2ccc(I)cc12 [GNF-Pf-4577]
- IC50 growth inhibition: > 150 µM

SMILES: Cc1cc(C)n(-c2ccc3c(Cl)cc(Cl)c(O)c3n2)n1
- IC50 growth inhibition: 71.3 µM

SMILES: CN1CCN(CCCN2c3ccccc3Sc3ccc(Cl)cc32)CC1 [Prochlorperazine]
- IC50 growth inhibition: 28.6 µM

SMILES: CNC(=O)c1cc(Oc2ccc(NC(=O)Nc3ccc(Cl)c(C(F)(F)F)c3)cc2)ccn1 [Sorafenib]
- IC50 growth inhibition: 4.27 µM

SMILES: COC1C(OC(N)=O)C(O)C(Oc2ccc3c(O)c(NC(=O)c4ccc(O)c(CC=C(C)C)c4)c(=O)oc3c2C)OC1(C)C (configuration not stated) [Novobiocin]
- IC50 growth inhibition: > 75 µM

SMILES: CCC(=O)NC(c1ccccc1Cl)c1cc(Cl)c2cccnc2c1O (configuration not stated) [GNF-Pf-5038]
- IC50 growth inhibition: 6.51 µM

SMILES: O=C(Nc1ccc(C(F)(F)F)c(C(F)(F)F)c1)c1cc(Cl)ccc1O
- IC50 growth inhibition: 5.64 µM

SMILES: CC(CN1c2ccccc2Sc2ccccc21)N(C)C (configuration not stated) [Promethazine]
- IC50 growth inhibition: 98.9 µM

SMILES: Brc1cncc(-c2cc(NCCCn3ccnc3)nc(-c3ccccc3)n2)c1
- IC50 growth inhibition: 23.9 µM

SMILES: C/C=C/[C@H]1O[C@@](O)([C@@H](C)[C@H](O)[C@H](C)[C@H]2OC(=O)/C(OC)=C\C(C)=C\[C@@H](C)[C@@H](O)[C@@H](CC)[C@@H](O)[C@H](C)C/C(C)=C/C=C/[C@@H]2OC)C[C@@H](O[C@H]2C[C@@H](O)[C@H](OC(=N)O)[C@@H](C)O2)[C@@H]1C [Concanamycin A]
- IC50 growth inhibition: 6.1 µM

SMILES: CNC(=O)c1ccccc1Nc1nc(Nc2ccc3c(c2OC)CCC[C@H](N2CCN(CCO)CC2)C3)ncc1Cl
- IC50 growth inhibition: 37.7 µM

SMILES: CCC(C)(C)c1ccc(OCCOCC[n+]2ccccc2)c(C(C)(C)CC)c1.[Cl-] [GNF-Pf-1618]
- IC50 growth inhibition: 2.19 µM

SMILES: COc1ccc2nc3cc(Cl)ccc3c(N(C)CCc3ccc(OC)c(OC)c3)c2c1
- IC50 growth inhibition: 27.2 µM

SMILES: CC(=O)OC1C(=O)C2(C)C(O)CC3OCC3(OC(C)=O)C2C(OC(=O)c2ccccc2)C2(O)CC(OC(=O)C(O)C(NC(=O)c3ccccc3)c3ccccc3)C(C)=C1C2(C)C (configuration not stated) [Paclitaxel]
- IC50 growth inhibition: > 75 µM

SMILES: Clc1ccc(COC(Cn2ccnc2)c2ccc(Cl)cc2Cl)c(Cl)c1 (configuration not stated) [Miconazole]
- IC50 growth inhibition: 0.007 µM

SMILES: CC(C=CC(=O)NO)=CC(C)C(=O)c1ccc(N(C)C)cc1 (configuration not stated) [Trichostatin A]
- IC50 growth inhibition: 50.6 µM

SMILES: COc1ccc(Nc2nc(Nc3ccc(C)cc3)nc(Sc3nc4ccccc4[nH]3)n2)cc1 [CBR499]
- IC50 growth inhibition: 2.31 µM

SMILES: CCCCc1oc2ccccc2c1C(=O)c1cc(I)c(OCCN(CC)CC)c(I)c1 [Amiodarone]
- IC50 growth inhibition: 5.72 µM

SMILES: Cc1ccc2nc(-c3ccc(N(C)C)cc3)[nH]c2c1
- IC50 growth inhibition: 11.8 µM

SMILES: C[C@]1(O)C[C@@H](c2nc(-c3ccc4ccc(-c5ccccc5)nc4c3)c3c(N)nccn32)C1 [Linsitinib]
- IC50 growth inhibition: 16 µM

SMILES: CCC1C=CC=CCC(C)C(O)C(C)(O)C(=O)C(C)C(O)C(C)C(=O)C(C)C(O)C(C)C=CC(=O)OC2C(C)C(CC1)OC1(CCC(C)C(CC(C)O)O1)C2C (configuration not stated) [Oligomycin]
- IC50 growth inhibition: > 75 µM

SMILES: CC(C)c1cc(NCCCN2CCOCC2)n2ncc(-c3ccccc3)c2n1
- IC50 growth inhibition: 25.1 µM

SMILES: c1ccc(-c2cc(N3CCCCC3)c3ccccc3n2)nc1
- IC50 growth inhibition: 42.9 µM

SMILES: CN1CCN(c2ccccc2NC(=O)c2cccc(Oc3ccccc3)c2)CC1
- IC50 growth inhibition: 98.9 µM

SMILES: N#C/C(=N\Nc1cc(C(F)(F)F)cc(C(F)(F)F)c1)S(=O)(=O)c1cccs1
- IC50 growth inhibition: 99 µM

SMILES: O=C(Nc1c(O)cccc1-c1nc2c(C(=O)O)cccc2o1)c1cc(-c2ccccc2)on1
- IC50 growth inhibition: 38.7 µM

SMILES: Cc1ccc(-n2nc(C(C)(C)C)cc2NC(=O)NCc2cc(F)ccc2Oc2ccc3c(cnn3CCO)c2)cc1 [Pexmetinib]
- IC50 growth inhibition: > 75 µM

SMILES: CCCc1nn(C)c2c(=O)nc(-c3cc(S(=O)(=O)N4CCN(C)CC4)ccc3OCC)[nH]c12 [Sildenafil citrate]
- IC50 growth inhibition: > 75 µM

SMILES: Cc1cccc2sc(C(=O)NCc3cccc(NS(N)(=O)=O)c3)c(Cl)c12
- IC50 growth inhibition: 70.6 µM

SMILES: COc1cc(OC)cc(C(=O)NCC2Cc3cc(Cl)cc(-c4ccncc4)c3O2)c1 (configuration not stated)
- IC50 growth inhibition: 14.4 µM

SMILES: OCc1ccc(-c2cncc(Nc3cccc(Cl)c3)c2)cc1
- IC50 growth inhibition: 6.31 µM

SMILES: CC(C)(C)C(O)C(Oc1ccc(-c2ccccc2)cc1)n1cncn1 (configuration not stated)
- IC50 growth inhibition: 70 µM

SMILES: Cc1nn(C(=O)Nc2cccc(C(F)(F)F)c2)c(C)c1Sc1ncccn1
- IC50 growth inhibition: 45 µM

SMILES: O=C1CCc2ccc(OCCCCN3CCN(c4cccc(Cl)c4Cl)CC3)cc2N1 [Aripiprazole]
- IC50 growth inhibition: 9.31 µM

SMILES: N#CC(C#N)=NNc1cc(Cl)cc(Cl)c1
- IC50 growth inhibition: 20.6 µM

SMILES: CCCCCCC(O)(c1ccc(F)cc1)C(CN1CCOCC1)c1ccccc1 (configuration not stated)
- IC50 growth inhibition: 17.3 µM

SMILES: CS(=O)(=O)Nc1nc(-c2ccccn2)nc2scc(-c3ccccc3)c12
- IC50 growth inhibition: 13.8 µM

SMILES: Cc1ccc(Nc2nc(N)nc(CN(C)Cc3nc(=O)c4ccccc4[nH]3)n2)cc1
- IC50 growth inhibition: 32.3 µM

SMILES: CC(=O)NCC1CN(c2ccc(-c3ccc(CNCc4cn[nH]n4)cc3)c(F)c2)C(=O)O1 (configuration not stated) [Radezolid]
- IC50 growth inhibition: > 75 µM

SMILES: C=C1[C@@H](C)[C@H]2[C@H](Cc3ccccc3)NC(=O)[C@]23OC(=O)/C=C/[C@H](O)CCC[C@@H](C)C/C=C/[C@H]3[C@@H]1O [Cytochalasin B]
- IC50 growth inhibition: > 75 µM

SMILES: CCOc1ccc(-c2nc(CNCCc3ccc(F)cc3)cs2)cc1
- IC50 growth inhibition: 42.5 µM

SMILES: CC1CCC2C(C)C(O)OC3OC4(C)CCC1C32OO4 (configuration not stated) [Dihydroartemisinin]
- IC50 growth inhibition: > 75 µM

SMILES: CCC(NC(=O)c1ccccc1NC(=O)c1ccc(C)cc1)C(=O)OC (configuration not stated)
- IC50 growth inhibition: 31.7 µM
